Where two headings read alike, the source gives them in different places. Marks after values point to notes of the source that are not given here.

The test system of series [1] is EJ human bladder carcinoma cells. The series can be described thus: Sensitivity of EJ cells to CPT-11, SN-38, SN-38G (3H-thymidine incorporation). In general terms: Incorporation of labelled thymidine or its analogues reports DNA synthesis.
Method: (§1) Cell viability was examined by measuring ^3H-thymidine incorporation into cellular DNA after the cells were cultured for an additional 24 h in fresh medium.
Series [2] in a line: Serum concentrations of CPT-11, SN-38 and SN-38G after CPT-11 administration. Conditions: for Serum levels in mice bearing EJ versus EJ/mβG tumor: 2 h after CPT-11 administration; for Serum concentrations in mice bearing EJ versus EJ/mβG tumor: 8 h or 24 h after CPT-11 administration.
A short description of series [3]: Intratumoral concentrations of CPT-11, SN-38 and SN-38G after CPT-11 treatment (SPE-HPLC). As for the experimental part:
Tumors were collected 2, 8 and 24 h after CPT treatment, immediately dispersed in ice-cold acidic methanol (methanol: water: perchloric acid=20:20:1), and homogenized 60 sec on an Ultraturax tissue homogenizer at 20,000 rpm. The samples were clarified by centrifugation at 15,000 g for 5 min at 4° C. Supernatants were diluted with 0.1 M KH2PO4 and then separated by SPE-HPLC on a μBondapack column with 27% acetonitrile in 0.1 M potassium phosphate buffer pH=2.6. […] These three analytes were quantified by comparison with standard curves generated with analyte concentrations ranging from 2.0 pg to 200 ng.

The subject of another series is EJ/mβG cells. The series can be described thus: Sensitivity of EJ/mβG cells to CPT-11, SN-38, SN-38G (3H-thymidine incorporation). Conditions: for IC50: read-out: IC50 (cytotoxicity), EJ/mβG cells.
A short description of series [4]: Relative activity of membrane-tethered human β-glucuronidase variants on 3T3 cells by flow cytometry (FL4/FL1). The series is classed as cell-based. To be noted: membrane-tethered enzyme, pH 7.0, substrate ELF97 β-D-glucuronide. As for the experimental part: The 3T3 cell libraries mentioned above were screened by FACS analysis for cells that express human β-glucuronidase variants with elevated enzymatic activity. 10^7 3T3 cells expressing membrane-bound human β-glucuronidase variants were washed and suspended in 0.4 ml BSA/HBSS (5.4 mM KCl, 0.3 mM Na2HPO4, 0.4 mM KH2PO4, 4.2 mM NaHCO3, 1.3 mM CaCl2, 0.5 mM MgCl2, 0.6 mM MgSO4, 137 mM NaCl, 5.6 mM D-glucose, pH 7.4) containing 0.5% bovine serum albumin (BSA) and 20 μg/ml 7G8-FITC for 30 min at 4° C. Cells were then washed and incubated with 25, 50 or 100 μM ELF97 β-D-glucuronide at defined pH values in 50 mM Bis-Tris, 25 mM glucose, 85.6 mM NaCl, 5.4 mM KCl, 0.6 mM MgSO4, 1.3 mM CaCl2) at 37° C. for 10 min. The cells were washed with ice-cold 0.5% BSA/HBSS and suspended in 0.5% BSA/HBSS containing 5 μg/ml propidium iodide (Sigma). Cells were then sorted on a FACSVantage DiVa (Becton, Dickinson and Company, Franklin Lakes, N.J.) equipped with an Enterprise IIC argon laser for dual excitation at 488 and 351-364 nm. Dead cells (propidium iodide positive, high FL3 fluorescence) were gated out before 7G8-FITC immunofluorescence was detected at excitation/emission wavelengths of 488/515 nm (FL1) and ELF97 was detected at excitation/emission wavelengths of 351/530 nm (FL4). […] The sorted cells were cultured for 4-10 days for sequential rounds of cell sorting or RNA extraction. Flow cytometer data was analyzed using Flowjo (Tree star, Ashland, Oreg.).
Independent 3T3 clones (5×10^7) in library EP2 mentioned above were immunofluorescence stained with 7G8-FITC and reacted with ELF97 β-D-glucuronide at pH 7.0. Sixteen individual cell clones were isolated after three rounds of sorting and the human β-glucuronidase genes were sequenced. […] Table 1 below lists amino acid substitutions in five exemplary variants and their relative enzymatic activities.
(In general: A flow cytometer gives signals particle by particle.)

The nature of series [5]: Kinetic values (Km, kcat) of soluble recombinant human β-glucuronidase and variants. The series is classed as biochemical. As to the method: Recombinant His-tagged wild-type human β-glucuronidase and its variants (soluble) were produced in and purified from stable 3T3 fibroblast lines, following the method described above also the method described in Wu et al., Biotechnol Appl Biochem 40:167-172 (2004).
The pH-dependent enzyme activities of the above-mentioned recombinant human beta-glucuronidase and variants were measured in triplicate with 0.1 mM ELF97 β-D-glucuronide at 37° C. for 30 minutes at a defined pH ranging from 3-10 in a beta-glucuronidase reaction buffer (50 mM Bis-Tris, 50 mM triethanol amine, 100 mM acetic acid, 0.1% BSA). The reaction was quenched by adding an equal volume of a stop buffer (2 M Tris-HCl, 0.8 M sodium bicarbonate, pH 8). The fluorescence of ELF97 was measured in a Gemini EM microplate spectrofluorometer (Molecular Device, Sunnyvale, Calif.) at excitation/emission wavelengths of 355/555 nm. Kinetic values for human beta-glucuronidase substrate hydrolysis were determined by diluting ELF97 β-D-glucuronide (2 mM) in a pH 4.5 or pH 7.0 beta-glucuronidase reaction buffer 1:1 with defined concentrations of human beta-glucuronidase in 200 μl. Fluorescence was immediately measured under thermal control at 37° C. for 8-10 min. The measurement was repeated using the same amount of enzyme at different substrate concentrations in an optimal range. The acquired readings were converted to product concentration based on preestablished standard curves. Double reciprocal plots were used to determine Km and kcat. Kinetic assays were performed at least 3 times and mean values were calculated. The stability of recombinant human beta-glucuronidase variants was carried out by measuring their enzymatic activity at time 0 and again after incubating 5 μg purified enzymes in PBS (containing 0.5 mg/ml BSA) at 37° C. for 14 days. The enzymatic activities of the human beta-glucuronidase variants were measured in triplicate with 0.5 mM 4-methylumbelliferyl β-D-glucuronide at 37° C. for 15 minutes at pH 7.0 in β-glucuronidase reaction buffer. The reaction was terminated by adding an equal volume of a stop buffer (1 M glycine, 0.5 M sodium bicarbonate, pH 11) and the fluorescence was measured at excitation/emission wavelengths of 355/460 nm in a microplate spectrofluorometer.

[6] abbreviates: 24 h after CPT-11 10 mg/kg i.v.

Method for EJ/mβG cells: EJ human bladder carcinoma cells were cultured in RPMI medium supplemented with 10% bovine calf serum in a humidified atmosphere of 5% CO2 in air at 37° C.
as §1

As for `CCc1c2c(nc3ccc(O)cc13)-c1cc3c(c(=O)n1C2)COC(=O)[C@]3(O)CC` [SN-38], the IC50 (in general, the concentration that gives 50% inhibition) turned out to be 2 nM in series [1] (read-out: IC50 (cytotoxicity), pH 6.6); 6 nM in series [1] (read-out: IC50 (cytotoxicity), pH 7.4); 2 nM in the series on EJ/mβG cells (pH 6.6); 6 nM in the series on EJ/mβG cells (pH 7.4). Moreover, the “Serum levels in mice bearing EJ versus EJ/mβG tumor” value in series [2] is “similar”. The “Serum concentrations in mice bearing EJ versus EJ/mβG tumor” value in series [2] was “no significant differences”. Also, the “Intratumoral concentration, percent higher in EJ/mβG tumors as compared to EJ tumors” value in series [3] (2, 8 and 24 h) is listed as 65-130%. In addition, the entries for the “Difference EJ/mβG vs EJ (EJ values as 100%)” value in series [3] (2 h), in series [3] (8 h) and in series [3] (24 h) were 65.63* %, 127.10* % and 71.43* %, respectively. Besides, the “Concentration in EJ xenografts” value in series [3] (2 h after CPT-11 10 mg/kg i.v.) is 43 ± 10.5 ng drug/g tumor; in series [3] (8 h after CPT-11 10 mg/kg i.v.), 7.5 ± 0.93 ng drug/g tumor; in series [3] (setting [6]), 0.07 ± 0.02 ng drug/g tumor. The entries for the “Concentration in EJ/mβG xenografts” value in series [3] (2 h after CPT-11 10 mg/kg i.v.), in series [3] (8 h after CPT-11 10 mg/kg i.v.) and in series [3] (setting [6]) were 71 ± 13 ng drug/g tumor, 17 ± 5.56 ng drug/g tumor and 0.12 ± 0.01 ng drug/g tumor, respectively.
As to SN-38G, the “Cytotoxicity at the highest concentration investigated” value in series [1] (1000 nM) is recorded as “non-toxic”. In series [2], the “Serum levels in mice bearing EJ versus EJ/mβG tumor” value is on record as “similar” and the “Serum concentrations in mice bearing EJ versus EJ/mβG tumor” value is reported as “no significant differences”. Also, the “Sensitivity of EJ/mβG cells relative to EJ cells” value with EJ/mβG cells (EJ/mβG vs EJ cells) is “over 30 times”. Further, the IC50 in the series with EJ/mβG cells (pH 6.6) is 32 nM. Further, the IC50 in the series on EJ/mβG cells (pH 7.4) worked out at 190 nM.

B1: E2-20: human beta-glucuronidase variant L243Q, L255Q, T545G, SEQ ID NO: 10 (protein)
chain: AAQPALQGGMLYPQESPSRECKELDGLWSFRADFSDNRRRGFEEQWYRRPLWESGPTVDMPVPSSFNDISQDWRLRHFVGWVWYEREVILPERWTQDLRTRVVLRIGSAHSYAIVWVNGVDTLEHEGGYLPFEADISNLVQVGPLPSRLRITIAINNTLTPTTLPPGTIQYLTDTSKYPKGYFVQNTYFDFFNYAGLQRSVLLYTTPTTYIDDITVTTSVEQDSGQVNYQISVKGSNQFKLEVRLLDAENKVVANGTGTQGQLKVPGVSLWWPYLMHERPAYLYSLEVQLTAQTSLGPVSDFYTLPVGIRTVAVTKSQFLINGKPFYFHGVNKHEDADIRGKGFDWPLLVKDFNLLRWLGANAFRTSHYPYAEEVMQMCDRYGIVVIDECPGVGLALPQFFNNVSLHHHMQVMEEVVRRDKNHPAVVMWSVANEPASHLESAGYYLKMVIAHTKSLDPSRPVTFVSNSNYAADKGAPYVDVICLNSYYSWYHDYGHLELIQLQLATQFENWYKKYQKPIIQSEYGAEGIAGFHQDPPLMFTEEYQKSLLEQYHLGLDQKRRKYVVGELIWNFADFMTEQSPTRVLGNKKGIFTRQRQPKSAAFLLRERYWKIANETRYPHSVAKSQCLENSPFTSVD
modifications: Laboratory generated variant, E2-20, based upon the human beta-glucuronidase
As for B1, the “Relative activity (FL4/FL1 normalized to wild-type human β-glucuronidase)” value in series [4] was determined as 116. Besides, the “Km as compared to E1-G” value in series [5] is “about a three-fold smaller Km”. Besides, the Michaelis constant (Km) – broadly, the substrate concentration at which the rate is half of its maximum – in series [5] (pH 4.5, 37° C.) was 6.7 ± 0.5 µM; in series [5] (pH 7.0, 37° C.) it was 38 ± 5 µM. Besides, the kcat (commonly the maximal rate divided by the concentration of active sites) was determined as 71 ± 3 s⁻¹ in series [5] (pH 4.5, 37° C.) and 30 ± 5 s⁻¹ in series [5] (pH 7.0, 37° C.). In addition, the “kcat/Km at pH 7.0, fold greater than kcat/Km of wild type at pH 4.5” value in series [5] (variant at pH 7.0 vs wild type at pH 4.5) was “about 2 fold”.

B2: S28: human beta-glucuronidase variant Q518R, T545S, E595Y, T599F, SEQ ID NO: 9 (protein)
chain: AAQPALQGGMLYPQESPSRECKELDGLWSFRADFSDNRRRGFEEQWYRRPLWESGPTVDMPVPSSFNDISQDWRLRHFVGWVWYEREVILPERWTQDLRTRVVLRIGSAHSYAIVWVNGVDTLEHEGGYLPFEADISNLVQVGPLPSRLRITIAINNTLTPTTLPPGTIQYLTDTSKYPKGYFVQNTYFDFFNYAGLQRSVLLYTTPTTYIDDITVTTSVEQDSGLVNYQISVKGSNLFKLEVRLLDAENKVVANGTGTQGQLKVPGVSLWWPYLMHERPAYLYSLEVQLTAQTSLGPVSDFYTLPVGIRTVAVTKSQFLINGKPFYFHGVNKHEDADIRGKGFDWPLLVKDFNLLRWLGANAFRTSHYPYAEEVMQMCDRYGIVVIDECPGVGLALPQFFNNVSLHHHMQVMEEVVRRDKNHPAVVMWSVANEPASHLESAGYYLKMVIAHTKSLDPSRPVTFVSNSNYAADKGAPYVDVICLNSYYSWYHDYGHLELIRLQLATQFENWYKKYQKPIIQSEYGAESIAGFHQDPPLMFTEEYQKSLLEQYHLGLDQKRRKYVVGELIWNFADFMTYQSPFRVLGNKKGIFTRQRQPKSAAFLLRERYWKIANETRYPHSVAKSQCLENSPFTSVD
modifications: Laboratory generated variant, S28, based upon the human beta-glucuronidase
Take B2: the “Relative activity (FL4/FL1 normalized to wild-type human β-glucuronidase)” value in series [4] was 47. Moreover, in series [5] (pH 4.5, 37° C.), the Km was found to be 16 ± 3 µM and the kcat amounted to 79 ± 3 s⁻¹. In series [5] (pH 7.0, 37° C.), the Michaelis constant (Km) amounted to 72 ± 24 µM and the kcat was 26 ± 3 s⁻¹.
